Assay results published in US20050038022A1, “Method for treatment of cancer and compositions for use therein” (Unisearch Limited, priority 2001, published 2005).

Key:
[1] = tested on: liver (HepG2, Hep3B, PLC/PRF/5, SKHEP-1, Hep1-6, HTC, Novikoff) and colorectal cancer (C-170, HT-29 and LOVO) cell lines; experiment: [3H]thymidine incorporation, liver and colorectal cancer cell lines (summary); assay type: cell-based, human and animal; settings: liver or colorectal cancer cells
Description: The present inventors tested BZs and particularly albendazole against a range of liver (HepG2, Hep3B, PLC/PRF/5, SKHEP-1, Hep1-6, HTC, Novikoff) and colorectal cancer (C-170, HT-29 and LOVO) cell lines.

SKHEP-1 = experiment: Combination with methimazole (MT), SKHEP-1 growth; assay type: cell-based; settings: SKHEP-1, albendazole 0.25 μM, 5 days
Description: (§1) The effect of inhibition of metabolism of albendazole on its antiproliferative activity was investigated using […] and the methimazole as an inhibitor of albendazole
(§2) 5000 cells each of HepG2 and S EP1 were plated into 24 wells plates and treated for 5 days with various concentrations of albendazole alone or together with MT.

PLC/PRF/5 = experiment: [3H]thymidine incorporation assay, PLC/PRF/5; assay type: cell-based, human; settings: 5 days
Description: (§3) HepG2, Hep3-B, Hep1-6, SKHEP-1, PLC/PRF/5, and HTC cells were obtained from European Collection of Cell Cultures (ECACC; U.K), Novikoff was obtained from Cancer Research Centre (DKFZ) Heidelberg, Germany. Cells were cultured in MEM or DMEM supplemented with 10% FBS, 50 units/ml penicillin, 50 units/ml streptomycin, 25 μg/ml amphotericin B (Gibco, Grand Island, N.Y.) and maintained subconfluent at 37° C. in humidified incubators containing 5% CO2. Albendazole (Sigma, Australian subsidiary) was dissolved in absolute ethanol at concentrations that were 1000-fold higher than the final medium concentration.

[2] = tested on: ovarian cancer cells (NIH:OVCAR-3); experiment: DNA laddering (apoptosis), ovarian cancer cells; assay type: cell-based, human
Description: To find out the way albendazole works as an anticancer drug, a large variety of tests can be performed. One of the first is to see if albendazole induces apoptosis. This again is tested in several ways, one of the most common is to check for DNA laddering. […] This is the first time that the induction of apoptosis by albendazole has been reported.

HCC cell lines = experiment: [3H]thymidine incorporation, all HCC cell lines (summary); settings: 1000 nM albendazole
Description: For the study of [^3H]thymidine incorporation, adherent cells (5-10×10^4) were plated onto 24-well Corning tissue culture dishes and were exposed to culture medium (5% FBS) containing the vehicle (0.1% ethanol) or different concentrations of albendazole (10^−8 to 10^−6 M). For Novikoff, a detached rat cell line, 2500 cells were suspended in 2 ml of DMEM (5% FBS) and kept under the same condition as for attached cells. Media were replaced with fresh media on alternate days. At the end of the treatment period (5 days), cell cultures were assayed for thymidine incorporation by the addition of 0.5 μCi of [^3H]thymidine (60 Ci/mmol. ICN Biochem, Irvine, Calif.) to each well for the last 4 h of culture. The amount of radioactivity incorporated into cells was determined using a β-scintillation counter. […] For the recovery experiments, SKHEP-1 cells were treated for 1 day with different concentrations of albendazole and then either assayed for [^3H]thymidine incorporation or the medium was replaced and the cells treated with fresh medium with out the drug for a further 4 days at the end of which, [^3H] thymidine incorporation assay was performed.
[^3H]Thymidine incorporation assay was used to determine the effect of albendazole on cell proliferation in a number of human (HepG2, Hep3-B, PLC/PRF/5, SKHEP-1), rat (HTC and Novikoff) and mice (Hep1-6) HCC cell lines.

HepG2 [3] = experiment: Combination with methimazole (MT), HepG2 growth; assay type: cell-based; settings: HepG2, albendazole alone 0.25, 0.1 and 0.01uM, 5 days
Description: as §1, §2

HepG2 [4] = experiment: [3H]thymidine incorporation assay, HepG2; assay type: cell-based, human; settings: 5 days
Description: as §3

Hep3-B = experiment: [3H]thymidine incorporation assay, Hep3-B; assay type: cell-based, human; settings: 5 days
Description: as §3

[5] = tested on: liver tumors (CRC or HCC); experiment: Albendazole in patients with advanced malignancy (phase 1 trial); assay type: in vivo, human
Description: The study was single-centre, open and non-controlled. Nine patients (8 male and 1 female) with either advanced CRC and hepatic metastasis or HCC were included in this study. One patient with neuroendocrine cancer and mesothelioma was also treated on a compassionate basis. The patients aged between 38-79 years were inoperable and had failed existing chemotherapy and also, except for two, had measurable and increasing tumor markers. The majority had also already failed hepatic artery chemotherapy. The diagnosis of CRC or HCC was made by ultrasound, CT or MRI scan, confirmed by histology and by determination of CEA or AFP levels for CRC or HCC respectively. Only patients with expected survival of more than one month were enrolled into the study. The study was approved by the Human Ethics Committee for Research of SESAHS. The protocol and the aim of the study was clearly explained to each patient and informed consent obtained. The duration of this study was four weeks but was to be stopped if leukopenia (WBC<[…]) or severe hepatocellular injury (ALT or AST 2× upper limit) developed. All patients received albendazole (400 mg scored tablets, Smith Kline Beecham, Australian subsidiary) 10 mg/kg orally in two or three divided doses for a planned duration of four weeks. This is the clinical dose of albendazole employed in the treatment of parasitic diseases. Patients were evaluated every three days by clinical examination together with full blood tests to monitor tumor markers, hematopoesis, liver and kidney function toxicity. A partial response (PR) was defined as a 50% or more decrease in the value of the markers. In addition there must be no new lesions or progression of any other lesions. Stable disease was defined as a decrease of less than 50%, or an increase of less than 25% in the value of tumor markers, while progressive disease (PD) was a 25% or more increase in the value of the tumor markers or the appearance of any new lesions.

With CCCSc1ccc2nc(NC(=O)OC)[nH]c2c1 [albendazole, methyl 5-propylthio-1H-benzimidazole-2-yl carbamate] the “concentration at which inhibitory activity starts” value [1] was “around 0.1 micromoles/L”, the growth inhibition (SKHEP-1) was “profoundly inhibited” and the “[3H]thymidine incorporation” value (PLC/PRF/5; PLC/PRF/5, albendazole 10 nM) was 92.7 ± 4.7 % control. For the same molecule, the “[3H]thymidine incorporation” value (PLC/PRF/5; PLC/PRF/5, albendazole 100 nM) was 69.4 ± 5.2 % control, the “[3H]thymidine incorporation” value (PLC/PRF/5; PLC/PRF/5, albendazole 500 nM) was 26.9 ± 2.7 % control and the “[3H]thymidine incorporation” value (PLC/PRF/5; PLC/PRF/5, albendazole 1000 nM) was 18.4 ± 2.1 % control. For the same molecule, the “DNA laddering (apoptosis)” value [2] was “induction of DNA laddering”, the thymidine incorporation (HCC cell lines) was “less than 20 % of control values” and the growth inhibition (HepG2 [3]) was “no growth inhibition”. For the same molecule, the “[3H]thymidine incorporation” value (HepG2 [4]; HepG2, albendazole 10 nM) was 93.1 ± 5.6 % control, the “[3H]thymidine incorporation” value (HepG2 [4]; HepG2, albendazole 100 nM) was 72.9 ± 6.3 % control and the “[3H]thymidine incorporation” value (HepG2 [4]; HepG2, albendazole 500 nM) was 12.2 ± 2.9 % control. For the same molecule, the “[3H]thymidine incorporation” value (Hep3-B; albendazole 10 nM) was 105.7 ± 8.6 % control, the “[3H]thymidine incorporation” value (Hep3-B; albendazole 100 nM) was 68.5 ± 5.7 % control and the “[3H]thymidine incorporation” value (Hep3-B; albendazole 500 nM) was 22.6 ± 1.8 % control. The “[3H]thymidine incorporation” value (Hep3-B; albendazole 1000 nM) was 9.3 ± 0.7 % control, the “disease outcome by tumor markers” value ([5]; 10 mg/kg/day oral, planned 28 days, nine patients (FIG. 6)) was “stabilization of the disease in three, and progression of the disease in the other two patients” and the “liver and kidney function tests” value ([5]; during the course of the trial, 10 mg/kg/day oral) was “no significant changes”. For the same molecule, the “Comments (adverse event)” value ([5]; patient 1, HCC, 19 days treatment) was “neutropenia;”, the “Comments (adverse event)” value ([5]; patient 2, CRC, 14 days treatment) was “neutropenia;” and the “Comments (adverse event)” value ([5]; patient 8, CRC) was “neutropenia”. The “serum CEA levels” value ([5]; patient 9, for the duration of the treatment (4 weeks)) was “less than 10 μg/L”, the disease outcome ([5]; patient number 1 (HCC), treatment stopped on day 19) was “stabilization of the disease” and the fatal outcome ([5]; patient number 1, after stopping albendazole, almost certainly related to therapy) was “died of neutropaenic sepsis”. For the same molecule, the neutropenia ([5]; patients 1, 2 and 8, drug had to be withdrawn) was “significant neutropenia developed” and the “serum CEA levels” value ([5]; patients 6, 7 and 8, 10 mg/kg/day oral) was “stable CEA levels”.
